Test results reported in US6344484B1, “Tyrosine alkoxyguanidines as integrin inhibitors” (3-Dimensional Pharmaceuticals, Inc., priority 1999, dated 2002).
Where a name gives a salt, the structure may show the parent alone. Read-outs that look alike come from different tables or passages of the source.

Columns and labels:
human GPIIbIIIa = target: T1, human GPIIbIIIa (Homo sapiens, UniProt P05106+P08514); experiment: Fibrinogen-IIb-IIIa assay (ELISA, inhibition of fibrinogen-GPIIbIIIa interaction); format: binding; details: mean of three replicate determinations; FIG. 1
T1 construct: purchased Enzyme Research Laboratories
Experimental: Fibrinogen-IIb-IIIa assay
The assay is based on the method of Dennis (Dennis, M. S., et al, Proteins 15: 312-321 (1993)). Costar 9018 flat-bottom 96-well ELISA plates were coated overnight at 4° C. with 100 μL/well of 10 μg/mL human fibrinogen (Calbiochem 341578) in 20 mM Tris-HCl pH 7.5, 150 mM NaCl, 2 mM CaCl2, 0.02% NaN3 (TAC buffer), and blocked for 1 hr at 37° C. with 150 μL/well of TAC buffer containing 0.05% Tween 20 and 1% bovine serum albumin (TACTB buffer). After washing 3 times with 200 μL/well of 10 mM Na2HPO4 pH 7.5, 150 mM NaCl, 0.01% Tween 20 (PBST buffer), controls or test compound (0.036-18.2 μM) were mixed with 40 μg/mL human GPIIbIIIa (Enzyme Research Laboratories) in TACTB buffer, and 100 μL/well of these solutions were incubated for 2 hr at 37° C. The plate was then washed 3 times with PBST buffer, and 100 μL/well of a monoclonal anti-GPIIbIIIa antibody in TACTB buffer (1 μg/mL, Enzyme Research Laboratories MabGP2b3a) was incubated at 37° C. for 1 hr. […] The reaction was stopped with 50 μL/well of 2M H2SO4, and the absorbence at 492 nm was recorded. Percent (%) inhibition was calculated from the average of three separate determinations relative to buffer controls (no test compound added), and a four parameter fit (Marquardt, D. W., J. Soc. Indust. Appl. Math. 11:431-441 (1963)) was used to estimate the half maximal inhibition concentration (IC50).

human αvβ3 = target: T2, human αvβ3 (Homo sapiens, UniProt P05106+P06756); experiment: αvβ3-vitronectin assay (ELISA, inhibition of αvβ3-vitronectin interaction); format: binding
T2 construct: purchased Chemicon CC10118
Experimental: The assay was based on the method of Niiya (Niiya, K., et al., Blood 70:475-483 (1987)). Costar 9018 flat-bottom 96-well ELISA plates were coated overnight at 4° C. with 100 μL/well of 0.4 μg/mL human αvβ3 (Chemicon CC10118) in TS buffer (20 mM Tris-HCl pH 7.5, 150 mM NaCl, 1 mM CaCl2, 1 mM MgCl2, 1 mM MnCl2). All subsequent steps were performed at room temperature. Plates were blocked for 2 hr with 200 μL/well of TS buffer containing 1% BSA (TSB buffer), and washed 5 times with 200 μL/well of TS buffer. Controls or test compound (0.44-455 nM) were mixed with 1 μg/mL of human vitronectin (Chemicon CC1019) that had been biotinylated in-house with sulfo-NHS-LC-LC-biotin (Pierce 21338, 20:1 molar ratio), and 100 μL/well of these solutions (in TSB buffer) were incubated for 2 hr. The plate was then washed 5 times with TS buffer, and 100 μL/well of 1 μ/mL NeutrAvidin-horseradish peroxidase conjugate (Pierce 31001) in TSB buffer was incubated for 1 hr. Following a 5-fold TS buffer wash, the plate was developed and results were calculated as described for the fibrinogen-IIbIIIa assay.

[1] = Table I, read-out: αvβ3 IC50 (nM), inhibition of the αvβ3-vitronectin interaction

T2 sequence (P06756 31-889 limits assumed): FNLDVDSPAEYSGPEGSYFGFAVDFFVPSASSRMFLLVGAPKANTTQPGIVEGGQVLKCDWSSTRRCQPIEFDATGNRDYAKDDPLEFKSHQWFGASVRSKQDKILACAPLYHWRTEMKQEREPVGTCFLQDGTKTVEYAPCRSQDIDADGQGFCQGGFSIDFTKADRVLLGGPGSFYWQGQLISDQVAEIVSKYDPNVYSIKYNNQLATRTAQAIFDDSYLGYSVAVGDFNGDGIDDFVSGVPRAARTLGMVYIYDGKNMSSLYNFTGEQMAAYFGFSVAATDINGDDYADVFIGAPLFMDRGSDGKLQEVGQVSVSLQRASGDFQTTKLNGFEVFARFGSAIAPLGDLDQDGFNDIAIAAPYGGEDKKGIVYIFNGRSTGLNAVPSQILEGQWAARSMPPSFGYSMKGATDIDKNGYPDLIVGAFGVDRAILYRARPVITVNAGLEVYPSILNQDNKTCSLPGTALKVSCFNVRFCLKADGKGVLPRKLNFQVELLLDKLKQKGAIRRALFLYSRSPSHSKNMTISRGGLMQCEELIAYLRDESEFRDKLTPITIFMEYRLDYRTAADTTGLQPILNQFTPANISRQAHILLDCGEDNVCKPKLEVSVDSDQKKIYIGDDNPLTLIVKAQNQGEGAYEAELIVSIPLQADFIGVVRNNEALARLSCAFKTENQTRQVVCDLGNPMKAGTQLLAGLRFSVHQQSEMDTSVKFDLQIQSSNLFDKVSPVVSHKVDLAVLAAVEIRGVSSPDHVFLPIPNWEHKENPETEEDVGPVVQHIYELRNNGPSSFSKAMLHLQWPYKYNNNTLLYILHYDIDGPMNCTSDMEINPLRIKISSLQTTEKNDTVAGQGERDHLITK
T2 sequence (P06756 891-1048 partner limits assumed): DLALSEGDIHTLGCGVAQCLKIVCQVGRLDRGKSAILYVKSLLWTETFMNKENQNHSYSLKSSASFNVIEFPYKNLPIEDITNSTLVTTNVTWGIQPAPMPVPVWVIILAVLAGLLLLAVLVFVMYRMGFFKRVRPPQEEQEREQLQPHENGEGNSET
T2 sequence (P05106 27-788): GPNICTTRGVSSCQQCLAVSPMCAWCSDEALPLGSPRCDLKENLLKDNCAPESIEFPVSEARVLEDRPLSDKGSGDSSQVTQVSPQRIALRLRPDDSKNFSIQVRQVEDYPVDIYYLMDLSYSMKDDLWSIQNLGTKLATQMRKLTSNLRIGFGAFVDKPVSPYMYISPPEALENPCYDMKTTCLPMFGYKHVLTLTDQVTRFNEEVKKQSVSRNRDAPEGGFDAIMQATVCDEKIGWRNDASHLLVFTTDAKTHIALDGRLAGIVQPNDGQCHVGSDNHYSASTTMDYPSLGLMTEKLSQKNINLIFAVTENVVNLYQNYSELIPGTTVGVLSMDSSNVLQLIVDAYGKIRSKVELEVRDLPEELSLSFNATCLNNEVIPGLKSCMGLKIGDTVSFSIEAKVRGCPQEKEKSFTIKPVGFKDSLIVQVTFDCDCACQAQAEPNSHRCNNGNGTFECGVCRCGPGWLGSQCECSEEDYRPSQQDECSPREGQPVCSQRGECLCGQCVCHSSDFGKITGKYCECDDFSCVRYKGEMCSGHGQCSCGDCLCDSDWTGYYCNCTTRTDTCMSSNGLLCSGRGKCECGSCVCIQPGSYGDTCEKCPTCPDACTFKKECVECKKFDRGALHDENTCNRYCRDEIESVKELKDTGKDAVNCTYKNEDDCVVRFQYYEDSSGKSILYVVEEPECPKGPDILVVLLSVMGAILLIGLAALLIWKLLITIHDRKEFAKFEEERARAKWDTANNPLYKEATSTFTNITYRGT
T1 sequence (P08514 32-887 limits assumed): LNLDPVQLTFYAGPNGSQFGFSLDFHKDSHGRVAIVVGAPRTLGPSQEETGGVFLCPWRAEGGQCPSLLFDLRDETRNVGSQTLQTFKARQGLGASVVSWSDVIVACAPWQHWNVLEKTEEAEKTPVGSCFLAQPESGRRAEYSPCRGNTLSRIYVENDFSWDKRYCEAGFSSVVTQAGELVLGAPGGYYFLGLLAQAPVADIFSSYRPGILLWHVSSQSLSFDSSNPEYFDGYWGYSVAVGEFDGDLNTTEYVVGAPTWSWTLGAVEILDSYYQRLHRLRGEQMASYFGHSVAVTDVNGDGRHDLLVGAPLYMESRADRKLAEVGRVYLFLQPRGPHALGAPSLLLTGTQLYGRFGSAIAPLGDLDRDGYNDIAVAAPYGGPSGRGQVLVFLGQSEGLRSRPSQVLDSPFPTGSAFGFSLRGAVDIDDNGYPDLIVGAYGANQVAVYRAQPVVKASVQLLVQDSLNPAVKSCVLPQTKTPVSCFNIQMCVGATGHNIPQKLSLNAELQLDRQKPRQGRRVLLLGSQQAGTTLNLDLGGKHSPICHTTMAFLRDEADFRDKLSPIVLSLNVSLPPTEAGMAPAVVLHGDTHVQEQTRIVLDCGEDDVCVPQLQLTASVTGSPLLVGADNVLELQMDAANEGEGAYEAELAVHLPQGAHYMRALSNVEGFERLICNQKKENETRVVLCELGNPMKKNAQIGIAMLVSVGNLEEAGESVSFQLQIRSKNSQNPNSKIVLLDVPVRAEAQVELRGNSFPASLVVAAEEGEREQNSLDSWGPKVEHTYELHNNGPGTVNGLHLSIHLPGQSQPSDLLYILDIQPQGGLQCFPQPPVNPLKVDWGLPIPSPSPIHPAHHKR
T1 sequence (P08514 891-1039 partner limits assumed): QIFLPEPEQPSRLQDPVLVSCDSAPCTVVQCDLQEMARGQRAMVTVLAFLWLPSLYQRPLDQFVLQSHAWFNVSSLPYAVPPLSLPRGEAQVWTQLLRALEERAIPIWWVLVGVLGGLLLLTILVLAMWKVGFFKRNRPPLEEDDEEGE
T1 sequence (P05106 27-788): as the sequence (P05106 27-788) above

| SMILES | IC50 (human GPIIbIIIa) [nM] | IC50 (human αvβ3; mean of three replicate determinations, FIG. 2, read-out: IC50, inhibition of the αvβ3-vitronectin interaction) [nM] | IC50 (human αvβ3; [1]) [nM] |
| --- | --- | --- | --- |
| CCCCS(=O)(=O)N[C@@H](Cc1ccc(OCCCONC(=N)N)cc1)C(=O)O [Example 1, (2S)-3-{4-[3-(amidinoaminooxy)propoxy]phenyl}-2-[(butylsulfonyl)amino]propanoic acid trifluoroacetic acid] | 780 | 28 | – |
| Cc1ccc([N+](=O)[O-])cc1S(=O)(=O)N[C@@H](Cc1ccc(OCCCONC(=N)N)cc1)C(=O)O [Example 11, (2S)-3-{4-[3-(Amidinoaminooxy)propoxy]phenyl)}-2-{[(2-methyl-5-nitrophenyl)sulfonyl]amino}propanoic acid trifluoroacetic acid salt] | – | – | 2 |
| N=C(N)NOCCCOc1ccc(C[C@H](NS(=O)(=O)c2c(Cl)cccc2Cl)C(=O)O)cc1 [Example 46, (2S)-3-{4-[3-(Amidinoaminooxy)propoxy]phenyl}-2-{[(2,6-dichlorophenyl)sulfonyl]amino}propanoic acid trifluoroacetic acid salt] | – | – | 2 |
| Cc1nn(C)c(Cl)c1S(=O)(=O)N[C@@H](Cc1ccc(OCCCONC(=N)N)cc1)C(=O)O [Example 77, (2S)-3-{4-[3-(Amidinoaminooxy)propoxy]phenyl}-2-{[(5-chloro-1,3-dimethylpyrazol-4-yl)sulfonyl]amino}propanoic acid trifluoroacetic acid salt] | – | – | 6 |
| CC1(C)C2CCC1(CS(=O)(=O)N[C@@H](Cc1ccc(OCCCONC(=N)N)cc1)C(=O)O)C(=O)C2 (stereo partly drawn) [Example 86, (2S)-2-{[(1S)-10-Camphorsulfonyl]amino}-3-{4-[3-(amidinoaminooxy)propoxy]phenyl}propanoic acid trifluoroacetic acid salt] | – | – | 1 |
